Measurements as given in US4301177A, “(3-Methyl-2-butenyl)propanedioic acid mono (1,2-diphenylhydrazide) and salts thereof” (Istituto de Angeli S.p.A., priority 1979, dated 1981).
Where a name gives a salt, the structure may show the parent alone.

Tests used:
[1] = tested on: rats; experiment: Effect on arthritis induced in rats by Freund's adjuvant (Table II); format: in vivo, male Sprague-Dawley rats; settings: day 20
[2] = tested on: mice; experiment: Analgesic activity, hot plate test in mice (Table III); format: in vivo, male Swiss mice
Protocol: (§1) In the present study the test compounds were administered perorally by means of a stomach tube as an aqueous suspension in 5% acacia gum at a constant volume of 10 ml/kg to male Swiss mice and male Sprague-Dawley rats. Control rats and mice were given a corresponding volume of the aqueous suspension medium. The results were statistically evaluated by Dunnett's test (C. V. Dunnett.: J.A. Stat. Ass., 40, 1096, 1955).
The analgesic activity was evaluated in mice by the hot plate test according to Janssen and Jageneau (J.Pharm.Pharmac., 9, 381, 1957).
The plate temperature was kept constant at 55° C.; the reaction time was determined before and 30, 60, 90 and 120 minutes after oral administration of the test compound. Average values after administration of the test compound were compared to those obtained before treatment.

[3] = tested on: rats; experiment: Analgesic-anti-inflammatory activity, Randall and Selitto, brewer's yeast inflamed paw in rats (Table IV); format: in vivo, male Sprague-Dawley rats
Protocol: as §1
4. Analgesic-anti-inflammatory activity
The analgesic-anti-inflammatory activity was evaluated in rats by the method of Randall and Selitto (Arch. Int. Pharmacodyn., 111, 409, 1957), using an analgesimeter to measure the minimum load that must be applied to a rat's hind paw to elicit a painful stimulus.
Both the controls and the experimental rats were injected into the right hind paw with 0.1 ml of 20% brewer's yeast in sterile saline immediately before the administration of the test compound.
The volume of the inflamed right hind paw was measured 1, 2 and 4 hours after the administration of the test compound.
The analgesic-anti-inflammatory activity was evaluated using an "analgesic index" expressed as a ratio between the sum of the average weights (grams) necessary to provoke a painful stimulus at different times in treated and control animals.

[4] = tested on: rats; experiment: Antipyretic activity, fever induced by brewer's yeast in rats (Table V); format: in vivo, male Sprague-Dawley rats
Protocol: as §1
The antipyretic activity was investigated in rats by the method of Niemegeers et al. (see Arzneim.Forsch. 25, 1519, 1975). The rectal temperature was measured immediately before and 4 hours after the subcutaneous injection of 1 ml/100 g body weight of a 15% brewer's yeast suspension in 1% acacia gum.
The test compound was administered orally to groups of 5 different rats per dose 4 hours after the yeast injection. The rectal temperature was measured 0.5, 1, 1.5, 2, 2.5, 3 and 19 hours after treatment.
(§2) Average values of the temperatures obtained in the treated rats were compared with those of control rats.

[5] = tested on: rats; experiment: Effect on normal temperature of rats (Table VI); format: in vivo, male Sprague-Dawley rats
Protocol: as §1
6. Effect on normal temperature of rats
The rectal temperature was measured at 30-minute intervals before and after administration of the test compound, that is, at -1.5, -1, -0.5, 0.5, 1, 1.5 and 2 hours, using groups of 10 rats each for each dosage level.
as §2

[6] = tested on: rats; experiment: Ulcerogenic effect, gastric lesions in rats (Table VIII); format: in vivo, male Sprague-Dawley rats; settings: single dose; for % animals with gastric lesions: 16 h
Protocol: as §1
The ulcerogenic effect was determined in rats by the method of Niemegeers et al. (Arzneimittel-Forschung 25, 1537, 1975). A single oral dose was administered to groups of 15 rats fasted for 9 hours before treatment and kept fasting throughout the whole experimental period. The animals were sacrificed 16 hours after treatment; the severity of lesions was scored according to an arbitrary scale ranging from + to ++++. For each group of rats, an ulcerogenic index was calculated according to Pauls et al., (Gastroenterology 8, 774, 1947).

## CCCCC(C(=O)O)C(=O)N(Nc1ccccc1)c1ccccc1 (centres unmarked) [B, Calcium salt of butylpropanedioic acid mono(1,2-diphenylhydrazide), reference compound]
[1]; 40 mg/kg oral
  % Inhibition: 30%
[1]; 80 mg/kg oral
  % Inhibition: 32%
[1]; 160 mg/kg oral
  % Inhibition: 41.6%
[2]; 50 mg/kg oral, 0 (before administration)
  Reaction time: 14.00 ± 3.80 s
[2]; 50 mg/kg oral, 30 min
  Reaction time: 16.50 ± 3.60 s
[2]; 100 mg/kg oral, 0 (before administration)
  Reaction time: 14.30 ± 2.67 s
[2]; 100 mg/kg oral, 90 min
  Reaction time: 17.10 ± 4.48 s
[2]; 100 mg/kg oral, 120 min
  Reaction time: 16.10 ± 2.56 s
[2]; 200 mg/kg oral, 0 (before administration)
  Reaction time: 12.90 ± 2.92 s
[3]; 40 mg/kg oral, 1 h
  Mean of the weights eliciting painful stimulus: 145.0 grams
[3]; 40 mg/kg oral, 2 h
  Mean of the weights eliciting painful stimulus: 108.8 grams
[3]; 40 mg/kg oral, 4 h
  Mean of the weights eliciting painful stimulus: 105.0 grams
[3]; 80 mg/kg oral, 1 h
  Mean of the weights eliciting painful stimulus: 140 grams
[3]; 80 mg/kg oral, 2 h
  Mean of the weights eliciting painful stimulus: 128.8 grams
[3]; 80 mg/kg oral, 4 h
  Mean of the weights eliciting painful stimulus: 110.0 grams
[3]; 160 mg/kg oral, 1 h
  Mean of the weights eliciting painful stimulus: 142.8 grams
[3]; 160 mg/kg oral, 2 h
  Mean of the weights eliciting painful stimulus: 161.2 grams
[3]; 160 mg/kg oral, 4 h
  Mean of the weights eliciting painful stimulus: 140.0 grams
[4]; 40 mg/kg oral, 0 h (4 h after yeast, before treatment)
  Rectal temperature: 38.08 °C
[4]; 40 mg/kg oral, 0.5 h
  Rectal temperature: 38.05 °C
[4]; 40 mg/kg oral, 1 h
  Rectal temperature: 38.20 °C
[4]; 40 mg/kg oral, 1.5 h
  Rectal temperature: 38.09 °C
[4]; 40 mg/kg oral, 2 h
  Rectal temperature: 38.17 °C
[4]; 40 mg/kg oral, 2.5 h
  Rectal temperature: 38.45 °C
[4]; 40 mg/kg oral, 3 h
  Rectal temperature: 38.01 °C
[4]; 40 mg/kg oral, 19 h
  Rectal temperature: 37.28 °C
[4]; 40 mg/kg oral, -4 h (before yeast)
  Rectal temperature: 36.74 °C
[4]; 80 mg/kg oral, 0 h (4 h after yeast, before treatment)
  Rectal temperature: 38.02 °C
[4]; 80 mg/kg oral, 0.5 h
  Rectal temperature: 37.10 °C
[4]; 80 mg/kg oral, 1 h
  Rectal temperature: 37.38 °C
[4]; 80 mg/kg oral, 1.5 h
  Rectal temperature: 37.48 °C
[4]; 80 mg/kg oral, 2 h
  Rectal temperature: 37.65 °C
[4]; 80 mg/kg oral, 2.5 h
  Rectal temperature: 37.96 °C
[4]; 80 mg/kg oral, 3 h
  Rectal temperature: 37.80 °C
[4]; 80 mg/kg oral, 19 h
  Rectal temperature: 37.44 °C
[4]; 80 mg/kg oral, -4 h (before yeast)
  Rectal temperature: 36.96 °C
[4]; 160 mg/kg oral, 0 h (4 h after yeast, before treatment)
  Rectal temperature: 38.52 °C
[4]; 160 mg/kg oral, 0.5 h
  Rectal temperature: 37.89 °C
[4]; 160 mg/kg oral, 1 h
  Rectal temperature: 37.81 °C
[4]; 160 mg/kg oral, 1.5 h
  Rectal temperature: 37.90 °C
[4]; 160 mg/kg oral, 2 h
  Rectal temperature: 37.34 °C
[4]; 160 mg/kg oral, 2.5 h
  Rectal temperature: 37.50 °C
[4]; 160 mg/kg oral, 3 h
  Rectal temperature: 37.41 °C
[4]; 160 mg/kg oral, 19 h
  Rectal temperature: 36.75 °C
[4]; 160 mg/kg oral, -4 h (before yeast)
  Rectal temperature: 36.06 °C
[5]; 40 mg/kg oral, 0.5 h
  Rectal temperature (normal rats): 36.02 °C
[5]; 40 mg/kg oral, 1 h
  Rectal temperature (normal rats): 36.13 °C
[5]; 40 mg/kg oral, 1.5 h
  Rectal temperature (normal rats): 36.10 °C
[5]; 40 mg/kg oral, 2 h
  Rectal temperature (normal rats): 36.20 °C
[5]; 40 mg/kg oral, -0.5 h (before administration)
  Rectal temperature (normal rats): 36.33 °C
[5]; 40 mg/kg oral, -1 h (before administration)
  Rectal temperature (normal rats): 36.62 °C
[5]; 40 mg/kg oral, -1.5 h (before administration)
  Rectal temperature (normal rats): 37.15 °C
[5]; 80 mg/kg oral, 0.5 h
  Rectal temperature (normal rats): 36.14 °C
[5]; 80 mg/kg oral, 1 h
  Rectal temperature (normal rats): 36.27 °C
[5]; 80 mg/kg oral, 1.5 h
  Rectal temperature (normal rats): 36.31 °C
[5]; 80 mg/kg oral, 2 h
  Rectal temperature (normal rats): 36.47 °C
[5]; 80 mg/kg oral, -0.5 h (before administration)
  Rectal temperature (normal rats): 36.34 °C
[5]; 80 mg/kg oral, -1 h (before administration)
  Rectal temperature (normal rats): 36.51 °C
[5]; 80 mg/kg oral, -1.5 h (before administration)
  Rectal temperature (normal rats): 36.69 °C
[5]; 160 mg/kg oral, 0.5 h
  Rectal temperature (normal rats): 35.62 °C
[5]; 160 mg/kg oral, 1 h
  Rectal temperature (normal rats): 35.70 °C
[5]; 160 mg/kg oral, 1.5 h
  Rectal temperature (normal rats): 35.92 °C
[5]; 160 mg/kg oral, 2 h
  Rectal temperature (normal rats): 36.24 °C
[5]; 160 mg/kg oral, -0.5 h (before administration)
  Rectal temperature (normal rats): 36.00 °C
[5]; 160 mg/kg oral, -1 h (before administration)
  Rectal temperature (normal rats): 36.52 °C
[5]; 160 mg/kg oral, -1.5 h (before administration)
  Rectal temperature (normal rats): 36.50 °C
[6]; 40 mg/kg oral
  Body weight, mean ± standard deviation: 194.67 ± 7.43 grams
  % animals with gastric lesions: 0%
[6]; 80 mg/kg oral
  Body weight, mean ± standard deviation: 190.67 ± 8.84 grams
  % animals with gastric lesions: 0%
[6]; 160 mg/kg oral
  Body weight, mean ± standard deviation: 198.00 ± 11.46 grams
  % animals with gastric lesions: 6.66%
[6]; 320 mg/kg oral
  Body weight, mean ± standard deviation: 186.67 ± 7.24 grams
  % animals with gastric lesions: 64.28%
